Laboratory results: ChEMBL document CHEMBL1201862, “PubChem BioAssay data set” (2004)
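A five-concentration, 48-hour dose response in 96-well plates underlies each endpoint, interpolated linearly between surrounding concentrations. At the GI50, growth is halved.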 Calls of active or inactive are those of the source. No stated cut-off is given here; in the data, active = GI50 up to about 1.1 µM and inactive = higher. Where a SMILES comes first, the peptide text is derived from it. The star is where a group is joined. Boc = CC(C)(C)OC(=O)*

What was measured:
Assay in all cases: NCI tumour cell line growth inhibition, 48 h
LXFL 529 = test system: LXFL 529
RXF 631 = test system: RXF 631
SR = test system: SR
M19-MEL = test system: M19-MEL
DU-145 = test system: DU-145
MDA-MB-231 = test system: MDA-MB-231
MDA-MB-435 = test system: MDA-MB-435
MDA-N = test system: MDA-N
XF498 = test system: XF498

Row | SMILES | GI50 (LXFL 529) | GI50 (RXF 631) | GI50 (SR) | GI50 (M19-MEL) | GI50 (DU-145) | GI50 (MDA-MB-231) | GI50 (MDA-MB-435) | GI50 (MDA-N) | GI50 (XF498)
1 | CN1NC(c2ccc(Cl)cc2)=C(C#N)C(=O)CC1c1ccccc1 (centres undefined) | > 100 µM (inactive) | > 100 µM (inactive) | > 100 µM (inactive) |  |  |  |  |  | 
2 | Cc1c2cnccc2c(C)c2c1c1ccccc1n2CC1CO1 (centres undefined) |  |  |  | 1.31 µM (inactive) |  |  |  |  | 
3 | CC(C)(C)OC(=O)NC(Cc1ccccc1)C(=O)N1CCCC1C(N)=O (stereo not drawn) (Boc-Phe-Pro-NH2; configuration not given here) |  |  | > 100 µM (inactive) |  | > 100 µM (inactive) | > 100 µM (inactive) | > 100 µM (inactive) | > 100 µM (inactive) | 
4 | CC1C2CC(CC2O)C1(C)C (centres undefined) |  |  | > 100 µM (inactive) |  | > 100 µM (inactive) | > 100 µM (inactive) | > 100 µM (inactive) | > 100 µM (inactive) | 
5 | NC(=O)CCC(NCc1c2ccccc2[n+]([O-])c2ccccc12)C(=O)O (centres undefined) | 45.1 µM (inactive) |  |  | 95.5 µM (inactive) |  |  |  |  | 
6 | CCOCNC(=O)N(COCC)COCC | > 100 µM (inactive) | > 100 µM (inactive) |  | > 100 µM (inactive) |  |  |  |  | > 100 µM (inactive)
7 | CC(=O)NNc1nc(C)c(C(=O)NNC(=O)C(=O)Nc2ccccc2C#N)s1 | > 100 µM (inactive) | > 100 µM (inactive) | 87.1 µM (inactive) | > 100 µM (inactive) |  |  |  |  | 
8 | O=C1C(Br)=CC2([N+](=O)[O-])CCNC3=C(C4=NCCc5c[nH]c(c54)C3=O)C2=C1Br (centres undefined) |  |  |  |  |  |  |  |  | 2.24 µM (inactive)
9 | COC(=O)c1cccc(N[C@@H]2c3cc4c(cc3C(c3cc(OC)c(O)c(OC)c3)[C@H]3C(=O)OCC32)OCO4)c1 (some centres undefined) |  |  |  | 1.28 µM (inactive) |  |  |  |  | 0.701 µM (active)
10 | CN1CCC(C(O)(c2ccccc2)c2ccc(Br)cc2)CC1 (centres undefined) |  |  | 17.5 µM (inactive) |  | 81.5 µM (inactive) | 14.7 µM (inactive) | 15.5 µM (inactive) | 15 µM (inactive) | 
11 | C=C(C)[C@@H]1CC[C@@H]2C(=CC[C@]3(C)C([C@H](C)CC/C=C(/C)C(=O)O)CC[C@@]23C)[C@@]1(C)CCC(=O)O (some centres undefined) |  |  | 21.3 µM (inactive) |  | 24.2 µM (inactive) | 25.2 µM (inactive) | 29.2 µM (inactive) | 28.3 µM (inactive) | 
12 | CCCN(CCC)c1cc2c(cc1F)c(=O)c(C(=O)O)cn2-c1ccc(N2CCN(C)CC2)cn1 |  |  | 15.7 µM (inactive) |  | 19.5 µM (inactive) | 13.5 µM (inactive) | 19.4 µM (inactive) | 20.1 µM (inactive) | 
13 | COc1ccc(-c2cc(O)c3ccc(C)nc3n2)cc1 |  |  |  |  | > 100 µM (inactive) | > 100 µM (inactive) |  |  | 
14 | CCOC(=O)C(Cc1ccc(N=NN(C)C)cc1)NC(=O)CC1c2ccccc2-c2ccccc21 (centres undefined) | 50.5 µM (inactive) |  | 48.9 µM (inactive) | 49.3 µM (inactive) |  |  |  |  | 
15 | CC(C)C(=O)/C=C/c1c(Cl)cccc1Cl |  |  | 1.91 µM (inactive) |  | 3.51 µM (inactive) | 4.28 µM (inactive) | 3.08 µM (inactive) | 3.05 µM (inactive) | 
16 | c1ccc2c3c(ccc2c1)-c1[nH]ncc1CCO3 |  |  |  | 34 µM (inactive) |  |  |  |  | 32.4 µM (inactive)
17 | Cc1ccc(N2C(=O)/C(=C3\SC(C(N)=O)=C(N)N3c3ccccc3)SC2=S)cc1 | > 100 µM (inactive) |  |  | > 100 µM (inactive) |  |  |  |  | 
18 | Cc1nc2ccccc2c(=O)n1Nc1ccc(C(=O)O)cc1 |  |  |  | > 100 µM (inactive) |  |  |  |  | > 100 µM (inactive)
19 | CCOC(=O)Oc1cc2ccsc2c2c1c1ccccc1n2C(=O)OCC |  |  | > 100 µM (inactive) |  | 32.8 µM (inactive) | 35.6 µM (inactive) | 68.9 µM (inactive) | 31 µM (inactive) | 
20 | O=C(Cc1nc2ccc(C(=O)c3ccccc3)cc2nc1O)C(=O)Nc1nc2ccccc2[nH]1 | 45.2 µM (inactive) | 65.5 µM (inactive) | 11.7 µM (inactive) | 56.1 µM (inactive) |  |  |  |  | 
21 | O=C(c1ccccc1)c1nc2ccc(Cl)cc2c2c1CCCO2 | > 100 µM (inactive) |  | > 100 µM (inactive) | > 100 µM (inactive) |  |  |  |  | 65.9 µM (inactive)
22 | O=C1NC(=O)C2C3C=CC(C12)C1C2C(=O)NC(=O)C2C31 (centres undefined) |  |  | 135 µM (inactive) | 177 µM (inactive) | > 250 µM (inactive) | > 250 µM (inactive) | > 1000 µM (inactive) | 701 µM (inactive) | 143 µM (inactive)
23 | COc1ccc(Cc2nn(C3OC(COC(C)=O)C(OC(C)=O)C(OC(C)=O)C3OC(C)=O)c(=S)n(-c3ccc(OC)cc3)c2=O)cc1 (centres undefined) |  |  |  | > 100 µM (inactive) |  |  |  |  | > 100 µM (inactive)
24 | CSc1nc2c(c(N3CCOCC3)n1)C(O)n1c(nc3ccccc31)S2 (centres undefined) |  |  | 51.2 µM (inactive) |  | > 100 µM (inactive) | 50.2 µM (inactive) | 95.3 µM (inactive) | > 100 µM (inactive) | 
25 | COc1cc(O)c2c(=O)cc(C3(O)C=CC(=O)C=C3)oc2c1 |  |  | < 0.01 µM (active) |  | 0.839 µM (active) | 0.327 µM (active) |  |  | 
26 | NC(=O)c1c[se]c(C2OC(COP(=O)(O)CP(=O)(O)OCC3OC(n4cnc5c(N)ncnc54)C(O)C3O)C(O)C2O)n1 (centres undefined) | 51.4 µM (inactive) |  | 35 µM (inactive) | > 100 µM (inactive) |  |  |  |  | > 100 µM (inactive)
27 | COc1cccc(NC(=O)CSc2nnc(-c3ccc(NC(C)=O)cc3)o2)c1 | > 100 µM (inactive) |  | 90.2 µM (inactive) | > 100 µM (inactive) |  |  |  |  | 
28 | CC(Cc1ccccc1)Nc1ncnc2c1ncn2C1OC(CO)CC1O (centres undefined) |  |  |  |  | > 100 µM (inactive) | > 100 µM (inactive) | > 100 µM (inactive) | > 100 µM (inactive) | 
29 | COc1cccc2c(Nc3ccc(S(=O)(=O)Nc4ncccn4)cc3)c3ccc([N+](=O)[O-])cc3nc12 |  |  | 1.95 µM (inactive) |  | 19.5 µM (inactive) | 38.7 µM (inactive) | 45.6 µM (inactive) | 54.5 µM (inactive) | 
